# In US8518953B2, “Aminopyrimidines useful as inhibitors of protein kinases” (Vertex Pharmaceuticals Incorporated, priority 2007, dated 2013):
# Columns and labels:
# [1] = test system: E16 rat hippocampal or cortical neurons; experiment: Axonal Branching Assay; format: cell-based
# Procedure: Compounds are tested for the ability to enhance axonal branching in E16 rat hippocampal or cortical neurons. 1 mg/ml stock of PDL is diluted into 100 μg/ml in DI water. The glass coverslips are coated for at least 1 hour at 37° C. prior to doing the dissection. PDL is aspirated and the plates are rinsed with PBS and air-dried in hood. Cortical or hippocampal lobes are combined with 9 mL of Base media (Neurobasal+Pen/Strep) and put on ice. 1 mL of 10× trypsin solution is added and the mixture is swirled gently. The tissue is then digested via incubation in a 37° C. waterbath for 20 minutes. After 20 minutes, 10 μl/ml DNase (100 μL DNase) is added and the mixture is incubated for another 5 minutes. The cells are spun at 1000 rpm for 1 minute. The enzyme solution is then removed without removing any of the brain fragments sitting on the bottom. The solid is washed 3 times with Wash media (Neurobasal+10% and Pen/Strep). […] The cells are counted in a hemacytometer and seeded at 5000-10000 cells/well in a 24 well plate with glass coverslip inserts coated with PDL. […] Images are captured at 10× and 20× on an upright microscope and axonal branching is determined by quantification of area under threshold fluorescence of neurofilament Alexa 488 per cell. Dendritic branching is determined by quantification of area under threshold fluorescence of MAP2 Alexa 568 per cell. […]
# GSK-3α/β pTYR = experiment: pTYR Biomarker Analysis in brains of MCAO rats (Western blot); format: in vivo, rat; conditions: all doses, at the termination of the study, compared to vehicle treated rats
# Procedure: RIPA consists of 0.5 ml 10% SDS, 2.5 ml 10% Sodium Deoxycholate, 0.5 ml NP40, and 46.5 ml PBS. […] 10 mL of lysis buffer (modified RIPA) is added to tissue (1 ml/½ brain) and homogenized on ice. The lysates are then centrifuged at 10000 rpm for 10 min at 4° C. The supernatant is then transferred to a new tube and kept on ice. The supernatant samples are respun at 10000 rpm for 10 min at 4° C. The supernatant is then transferred to a new tube and kept on ice. An aliquot of the supernatant is taken and the protein is measured with the Pierce BCA protein assay kit (cat#23225), using BSA standard curve (do a 1:25 dilution in PBS). The remaining supernatant is diluted to 1 ug/ul with Biorad Laemmli Sample buffer (cat#161-0737) with β-mercaptoethanol added. The samples are boiled for 5 min at 95° C. and spun in a microfuge for 1 minute. The samples are snap frozen on dry ice and stored at −20° C. 10 ug of protein/lane (10 uL) is then loaded and the Western blot is run according to Example 3. Inhibition of GSK-3α/β pTYR is determined by comparing the density of the protein band in samples obtained from animals treated with compound to samples from vehicle treated animals. […] Lysates were analyzed by Western blot (see Example 3) and probed for GSK-3α/β pTYR levels.
compound,measurement,setting,value
"Cc1nc(-c2ccccc2Cl)nc(Nc2n[nH]c3ncc(F)cc23)c1C [Compound I-1, N-(2-(2-chlorophenyl)-5,6-dimethylpyrimidin-4-yl)-5-fluoro-1H-pyrazolo[3,4-b]pyridin-3-amine]",axonal and dendritic branching,"[1]; 10 nM, 7 days",increased axonal and dendritic branching
same,axon growth,[1]; concentrations that have been shown to induce β-catenin,axon growth was inhibited
same,GSK-3α/β pTYR signal in the brain,GSK-3α/β pTYR,significant reduction in pTYR signal
